Legend:
[1] = system: female diabetic db/db mice; experiment: serum glucose, triglyceride and thyroxine levels in db/db mice; assay type: in vivo
Method: An assay described below tests the effect of compounds of the invention on serum glucose, tryglyceride and thyroxine levels in female 9-10 weeks old db/db mice.
Blood samples (70 μl) were taken by orbital bleeding at 11:00 AM on day 0 (pre-treatment), day 3, and day 6. On day 7, a blood sample (700 μl) was taken at 11:00 AM and the animals were sacrificed. Glucose, triglyceride and thyroxine (T4) levels were determined on a Boehringer Manheim Hatachi Clinical Chemistry Analyzer using standard protocols provided by the manufacturer and reagents that were supplied in commercially available kits (glucose and T4; Boehringer Manheim; triglycerides: Roche Diagnostics). Seven animals were treated in each group.

RXRβ = molecular target: T1, RXRβ (Homo sapiens, UniProt P28702); experiment: holoreceptor transactivation assay, RXRβ; assay type: cell-based
T1 construct: expressed in transfected cells
T1 sequence (P28702 1-533): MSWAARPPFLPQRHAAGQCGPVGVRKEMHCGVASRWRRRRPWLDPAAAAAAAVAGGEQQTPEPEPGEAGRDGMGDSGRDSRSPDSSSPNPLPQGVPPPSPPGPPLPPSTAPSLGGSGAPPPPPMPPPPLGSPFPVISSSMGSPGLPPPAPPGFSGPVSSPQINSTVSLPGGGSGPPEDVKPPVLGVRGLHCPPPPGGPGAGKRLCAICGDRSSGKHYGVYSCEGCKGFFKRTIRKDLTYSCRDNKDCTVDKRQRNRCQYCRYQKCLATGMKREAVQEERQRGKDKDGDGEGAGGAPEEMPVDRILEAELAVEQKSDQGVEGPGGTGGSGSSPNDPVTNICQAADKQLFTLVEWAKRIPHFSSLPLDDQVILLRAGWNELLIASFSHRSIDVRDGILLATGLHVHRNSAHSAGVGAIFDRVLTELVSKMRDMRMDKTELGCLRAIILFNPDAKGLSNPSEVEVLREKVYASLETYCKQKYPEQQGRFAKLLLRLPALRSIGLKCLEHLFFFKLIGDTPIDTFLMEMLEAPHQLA
From the text: (§1) Particularly, the transactivation data pertaining to activation of the RAR receptors were obtained in the chimeric assay, and the transactivation data pertaining to the activation of RXR receptors were obtained in the holoreceptor assay.

RXRα = molecular target: T2, RXRα (Homo sapiens, UniProt P19793); experiment: holoreceptor transactivation assay, RXRα; assay type: cell-based; conditions: efficacy as a percentage compared to the standard compound
T2 construct: expressed in transfected cells
T2 sequence (P19793 1-462): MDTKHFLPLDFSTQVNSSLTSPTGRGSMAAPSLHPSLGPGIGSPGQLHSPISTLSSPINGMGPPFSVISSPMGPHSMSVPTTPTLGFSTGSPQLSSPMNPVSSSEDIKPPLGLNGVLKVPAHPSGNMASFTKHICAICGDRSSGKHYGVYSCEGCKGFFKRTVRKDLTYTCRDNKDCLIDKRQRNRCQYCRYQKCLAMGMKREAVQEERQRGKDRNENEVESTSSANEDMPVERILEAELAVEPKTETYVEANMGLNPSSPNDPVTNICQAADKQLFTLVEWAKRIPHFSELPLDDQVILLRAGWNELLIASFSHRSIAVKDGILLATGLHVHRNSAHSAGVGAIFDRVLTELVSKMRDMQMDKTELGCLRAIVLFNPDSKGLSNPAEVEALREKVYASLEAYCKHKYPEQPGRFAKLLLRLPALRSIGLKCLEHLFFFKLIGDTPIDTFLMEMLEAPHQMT
From the text: as §1

[2] = female db/db mice, day 0 (pre-treatment), groups: standard compound 5 mg/kg, Compound 27 50 mg/kg
[3] = female db/db mice, oral gavage daily, standard compound 5 mg/kg, Compound 27 50 mg/kg

SMILES: CC(/C=C/[C@@H]1C[C@]1(C)c1ccc2c(c1)C(C)(C)CCC2(C)C)=C\C(=O)O [Standard compound, (2E,4E,1'S,2'S)-3-methyl-5-[2′-methyl-2′-(5,5,8,8-tetramethyl-5,6,7,8-tetrahydro-naphthalen-2-yl)-cyclopropyl]-penta-2,4-dienoic acid]
- effect on serum thyroxine levels ([1]; diabetic mammals (db/db mice), in words): undesirable side effect of reducing serum thyroxine levels
- Glucose Day 0 [1, 2]: 356 mg/dL
- Triglycerides Day 0 [1, 2]: 152 mg/dL
- T4 Day 7 ([1]; female db/db mice, oral gavage daily for seven days, standard compound 5 mg/kg, Compound 27 50 mg/kg): 2.6 ± 0.6 µg/dL
- Glucose Day 3, 3 h [1, 3]: 249 mg/dL
- Glucose Day 6, 3 h [1, 3]: 239 mg/dL
- Triglycerides Day 3, 3 h [1, 3]: 137 mg/dL
- RXR Trans. efficacy β (RXRβ; efficacy as a percentage compared to the standard compound): 100%
- efficacy in activating RXRβ compared with RXRα and RXRγ (RXRβ; transactivation, comparison of subtypes): approximately equally efficacious in activating the RXRα, RXRβ and RXRγ subtypes
- RXR Trans. efficacy α (RXRα): 100%
